Tests used:
[1] = tested on: Easter lily pollen; assay: Easter lily pollen germination in vitro (germination rate in germination medium); type: cell-based, Easter lily (Lilium longiflorum Thunb. cv White Heaven)
Description: Pollen and stigma exudate (SE) were collected from more than ten thousand Easter lily (Lilium longiflorum Thunb. cv White Heaven) flowers. After dehydration at room temperature for 4 to 5 days, pollen grains were collected from dehydrated anthers. Pistils were harvested and used for SE collection. In general, 20~50 μL SE collected from a single ‘White Heaven’ pistil will be stored at −20° C. for further usage.
(§1) Lily pollen was cultured in a germination medium (GM) containing 12.7 mM CaCl2), 1.62 mM H3BO3, 9.9 mM KNO3, and 10% sucrose, pH5.2 at 28° C. for 2 hours with shaking at 50 rpm in the dark. Tobacco (Nicotiana tabacum) pollen was germinated in GM containing 1 mM CaCl2), 1 mM KCl, 1.6 mM H3BO3, 5% sucrose, 30 μM CuSO4, 15 mM MES, and 12.5% PEG4000, pH 5.9 at 25° C. for 2 hours with shaking at 50 rpm in the dark. Arabidopsis (Arabidopsis thaliana, Col-0) pollen was germinated in GM containing 5 mM CaCl2), 1 mM MgSO4·5 mM KCl·0.01% H3BO3, 10% Sucrose, pH 7.5 at 25° C. for 2 hours with shaking at 50 rpm in the dark. An Olympus BX51 microscope recorded germinating pollen. Pollen germination rate was calculated using the formula below: Pollen germination rate (%)=number of germinated pollen grains per field of view by the total number of pollen grains per field of view X100.
(§2) ImageJ measured pollen tube length and Western blot band intensity quantification. All P-values were calculated by One-way ANOVA (Analysis Of Variance) and Tukey's post hoc tests with SPSS
To validate the effect of HOPA on the stimulation of pollen germination, lily pollen grains were cultured in the GM containing 0, 10, 50, 100, and 200 ppm (part per million) of artificial HOPA for different time intervals.
SE has shown its effect on restoring the lost germination capability of pollen stored at low temperatures for a specific period (FIGS. 1A-1E). To validate whether the purified HOPA is the cause to rescue pollen germination capability, pollen grains stored for different time intervals (1 day, 2.5, or 5 months) were subjected to germination assays with or without 100 ppm artificial HOPA present in the GM.
High temperature is an adverse factor for pollen viability (Rang et al., 2011). We further investigated the effect of HOPA on the restoration of pollen viability after heat damage. Freshly collected lily pollen were pre-heat treatments at 28, 37, and 42° C. for 4 hours, followed by subjecting for germination in the GM with or without HOPA at 28° C. for 2 hours.
Low temperature is another adverse factor for pollen germination and growth. […] For the control, about 8% of pollen was germinated after 3-hour culture, but HOPA rescued the pollen germination up to about 29% germination rate (FIGS. 6E-6F).

[2] = tested on: Nicotiana tabacum pollen; assay: Tobacco pollen germination in vitro; type: cell-based; conditions: HOPA at 25° C. for 2 hours; FIG. 8A: 50-1600 ppm, 1.5 hours
Description: as §1, with “Tobacco (Nicotiana tabacum) pollen was germinated in GM containing 1 mM CaCl2), 1 mM KCl, 1.6 mM H3BO3, 5% sucrose, 30 μM CuSO4, 15 mM MES, and 12.5% PEG4000, pH 5.9 at 25° C. for 2 hours with shaking at 50 rpm in the dark.” left out
as §2
(§3) To investigate the possibility that HOPA can stimulate diverse-species pollen germination, we examined Nicotiana tabacum and Arabidopsis thaliana (Col-0) pollen in GM with or without HOPA at 25° C. for 2 hours. […] Those results reveal the promising universal function of HOPA in stimulating pollen germination.

[3] = tested on: Arabidopsis thaliana (Col-0) pollen; assay: Arabidopsis pollen germination in vitro; type: cell-based; conditions: HOPA at 25° C. for 2 hours; FIG. 8B: 200 ppm, 2.5 hours
Description: as §1, with “Arabidopsis (Arabidopsis thaliana, Col-0) pollen was germinated in GM containing 5 mM CaCl2), 1 mM MgSO4·5 mM KCl·0.01% H3BO3, 10% Sucrose, pH 7.5 at 25° C. for 2 hours with shaking at 50 rpm in the dark.” left out
as §2, §3

[4] = tested on: lily pollen tube; assay: Lily pollen tube elongation; type: cell-based, Easter lily (Lilium longiflorum Thunb. cv White Heaven); conditions: 100 ppm HOPA
Description: as §1, §2
We germinated lily pollen in GM with or without 100 ppm HOPA at 28° C. for different time intervals to obtain their growth rates.

Structure (SMILES): CC(C)(CO)C(O)C(=O)NCCCC(=O)O (centres unmarked) [HOPA, hopantenic acid]
- pollen germination rate, HOPA dose response ([1]; 0, 10, 50, 100 and 200 ppm HOPA in GM, 28° C., FIG. 5: 2 hours, pollen stored at 4° C. one week): linear-gradient increase in a HOPA dosage-dependent manner
- pollen germination, significance of stimulation ([1]; 10-200 ppm HOPA, 28° C., 2 hours, pollen stored at 4° C. one week (FIGS. 5A-5G)): significantly stimulates Easter lily pollen germination
- pollen germination rate at low temperature ([1]; 18° C., 3-hour culture, 100 ppm HOPA, control about 8% (FIGS. 6E-6F)): about 29%
- pollen germination at low temperature, in words ([1]; 18° C., 3-hour growth, 100 ppm HOPA (FIGS. 6E-6F)): partially rescued pollen germination rate at low-temperature conditions
- pollen germination rates of HOPA compared with 1/10 SE ([1]; 100-200 ppm HOPA (FIG. 5G) vs 1/10 SE (about 785 ppm HOPA)): comparable effects in pollen germination rates
- pollen germination of long-time stored pollen ([1]; pollen stored at 4° C. for 1 day, 2.5 or 5 months, 100 ppm HOPA, 28° C., 2 hours (FIGS. 6A-6B)): validly stimulates pollen germination in all stored pollen grains, especially for 5-month stored pollen germination
- pollen germination after heat damage ([1]; pre-heat treatment at 28, 37 and 42° C. for 4 hours, then 100 ppm HOPA at 28° C. for 2 hours (FIGS. 6C-6D)): compromised the heat stress causing a decrease in pollen germination
- Nicotiana tabacum pollen germination [2]: significantly stimulated
- Arabidopsis thaliana pollen germination [3]: significantly stimulated
- pollen tube elongation rate, in words ([4]; 28° C. (FIG. 7), compared to GM only): accelerated the pollen tube elongation rate
- pollen tube elongation rate (slope) ([4]; 28° C., different time intervals, control slope 0.0066 (FIG. 7)): 0.0109

— US20260314594A1, “METHODS OF ENHANCING POLLEN VIABILITY OF PLANTS” (ACADEMIA SINICA, priority 2022, published 2026)
